Consider 14 compounds from PubChem BioAssay (NCI).

Test systems include M19-MEL melanoma; UACC-62 melanoma; SN12C renal; HCT-116 colon; NCI-H522 lung; SNB-75 CNS; SNB-19 CNS; SK-MEL-2 melanoma; HCC-2998 colon; KM20L2 colon.
Holding throughout (assay): NCI anticancer screen, dose series, 48 h

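Exposure lasted 48 hours, with cells grown in 96-well plates and compounds tested at five concentrations. The concentration for 50% growth inhibition is given as GI50. Definition used: TGI = concentration required for complete inhibition of growth.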

As for `N/C=N/S(=O)(=O)c1ccc(NC(=O)COC(=O)c2cccc3c(=O)c4ccccc4[nH]c23)cc1`, the TGI in the experiment on M19-MEL melanoma, in the experiment with UACC-62 melanoma, in the experiment with SN12C renal, in the experiment with HCT-116 colon, with NCI-H522 lung and in the experiment with SNB-75 CNS was over 100 µM throughout. Further, the TGI with SNB-19 CNS was over 100 µM.

As for `CCc1ccccc1NC(=O)C(=O)C(C#N)c1ccccc1Cl` (stereo unspecified), the TGI in the experiment on M19-MEL melanoma, in the experiment on SK-MEL-2 melanoma, with UACC-62 melanoma, in the experiment on SN12C renal, in the experiment with HCC-2998 colon and in the experiment with HCT-116 colon was over 100 µM throughout. Also, the TGI with KM20L2 colon, with SNB-75 CNS and with SNB-19 CNS was over 100 µM throughout.

Take `O=C(Cc1ccccc1[N+](=O)[O-])C(CO)c1ccccc1[N+](=O)[O-]` (stereo unspecified): the TGI in the experiment with M19-MEL melanoma, in the experiment on SK-MEL-2 melanoma, in the experiment on UACC-62 melanoma, with SN12C renal, with HCC-2998 colon and in the experiment on HCT-116 colon was over 100 µM each time. The TGI was 70.5 µM in the experiment on NCI-H522 lung, over 100 µM in the experiment on KM20L2 colon, over 100 µM with SNB-75 CNS and over 100 µM in the experiment on SNB-19 CNS.

For the compound `O=C(C=Nc1ccccc1C(=O)[O-])c1cccs1.O=C(C=Nc1ccccc1C(=O)[O-])c1cccs1.[Ni+2]`, in the experiment on M19-MEL melanoma, the GI50 is 31.1 µM. Further, the TGI with M19-MEL melanoma, in the experiment with SK-MEL-2 melanoma, in the experiment with UACC-62 melanoma, with SN12C renal, with HCC-2998 colon and with HCT-116 colon was over 100 µM throughout. In addition, the TGI is 55.3 µM in the experiment with NCI-H522 lung, over 100 µM in the experiment on KM20L2 colon and over 100 µM with SNB-19 CNS.

Take `COC(=O)C1CSC(c2csc(CCN)n2)=N1` (stereo unspecified): the TGI in the experiment with M19-MEL melanoma, with SK-MEL-2 melanoma, with UACC-62 melanoma, in the experiment with SN12C renal, with HCC-2998 colon and in the experiment with HCT-116 colon was over 100 µM throughout. For the same compound, the TGI with NCI-H522 lung, with KM20L2 colon, with SNB-75 CNS and in the experiment on SNB-19 CNS was over 100 µM throughout.

For the compound `COC(=O)Cc1c([C@@]2(C)CCCC(C)(C)C2)ccc2c1C(=O)OC2`, the TGI in the experiment on M19-MEL melanoma was 69.6 µM; in the experiment with UACC-62 melanoma it was 31.4 µM; with SN12C renal, 23 µM; in the experiment on HCT-116 colon it was 22 µM; in the experiment with NCI-H522 lung, 19.8 µM; with SNB-75 CNS, 28.7 µM.

Turning to `Nc1nc(N)c(CCCCc2ccccc2)c(C=O)n1`, the TGI with M19-MEL melanoma turned out to be 29.5 µM; in the experiment on SK-MEL-2 melanoma it was 40.3 µM; with UACC-62 melanoma, 30.8 µM; in the experiment on SN12C renal, 39.1 µM; in the experiment with HCC-2998 colon it was 76.6 µM; in the experiment on HCT-116 colon, 27.9 µM. The TGI with KM20L2 colon was 90 µM; in the experiment on SNB-75 CNS, 38 µM; with SNB-19 CNS it was 38.3 µM.

Regarding `NC1N=Nc2ccccc21` (stereo unspecified), the TGI with M19-MEL melanoma, with SK-MEL-2 melanoma, with SN12C renal, in the experiment on HCC-2998 colon, in the experiment on HCT-116 colon and in the experiment with NCI-H522 lung was over 100 µM each time. In addition, the TGI in the experiment with KM20L2 colon, with SNB-75 CNS and in the experiment on SNB-19 CNS was over 100 µM each time.

For the compound `COc1cccc(C=O)c1C(=O)c1cc(O)ccc1O`, the TGI is 79.8 µM in the experiment with M19-MEL melanoma; over 100 µM with SK-MEL-2 melanoma; over 100 µM in the experiment on UACC-62 melanoma; over 100 µM with SN12C renal; over 100 µM with HCC-2998 colon; 39.2 µM in the experiment with HCT-116 colon. Further, the TGI in the experiment with KM20L2 colon, in the experiment with SNB-75 CNS and in the experiment on SNB-19 CNS was over 100 µM throughout.

Consider `O=C1C(=c2ccc(=C3C(=O)c4ccc([N+](=O)[O-])cc4[N+]3=O)cc2)N([O-])c2cc([N+](=O)[O-])ccc21`, for which the GI50 in the experiment on M19-MEL melanoma, in the experiment with SK-MEL-2 melanoma, in the experiment on SN12C renal, with HCC-2998 colon, in the experiment on HCT-116 colon and with NCI-H522 lung was over 100 µM in each case. Moreover, the GI50 with KM20L2 colon and in the experiment with SNB-19 CNS was over 100 µM each time. The TGI in the experiment with M19-MEL melanoma, with SK-MEL-2 melanoma, in the experiment with SN12C renal, in the experiment on HCC-2998 colon, in the experiment with HCT-116 colon and in the experiment with NCI-H522 lung was over 100 µM each time. Besides, the results for the TGI in the experiment on KM20L2 colon, in the experiment on SNB-75 CNS and with SNB-19 CNS were over 100 µM, 69.8 µM and over 100 µM, respectively.

As for `O=C(CCC(=O)Nc1ccc(Cl)c(Cl)c1)CC(=O)c1ccc2ccccc2c1`, the TGI in the experiment on M19-MEL melanoma, in the experiment on SK-MEL-2 melanoma, in the experiment with UACC-62 melanoma, in the experiment with SN12C renal, in the experiment on HCC-2998 colon and with HCT-116 colon was over 100 µM in each case. Also, the TGI in the experiment with NCI-H522 lung, in the experiment with KM20L2 colon, in the experiment with SNB-75 CNS and with SNB-19 CNS was over 100 µM throughout.

`O=[N+]([O-])c1cc(-c2nc(=S)[nH][nH]2)ccc1O`: the TGI in the experiment with M19-MEL melanoma, with SK-MEL-2 melanoma, in the experiment with UACC-62 melanoma, in the experiment with SN12C renal, in the experiment on HCC-2998 colon and with HCT-116 colon was over 100 µM throughout. For the same compound, the TGI in the experiment on KM20L2 colon and in the experiment on SNB-19 CNS was over 100 µM throughout.

As for `[O-]/N=[N+](/[O-])C1CCCCC1=[N+]1CCOCC1` (stereo unspecified), the TGI in the experiment on M19-MEL melanoma, in the experiment on SK-MEL-2 melanoma, in the experiment with UACC-62 melanoma, with SN12C renal, in the experiment on HCT-116 colon and with NCI-H522 lung was over 100 µM each time. In the experiment with SNB-19 CNS, the TGI was over 100 µM.

For the compound `OCC1OC2c3ccccc3COC2C1OCc1ccccc1` (stereo unspecified), the TGI in the experiment with M19-MEL melanoma, in the experiment on SK-MEL-2 melanoma, with UACC-62 melanoma, with SN12C renal, in the experiment on HCC-2998 colon and in the experiment with HCT-116 colon was over 100 µM in each case. Moreover, the TGI in the experiment on NCI-H522 lung, in the experiment with KM20L2 colon, in the experiment with SNB-75 CNS and in the experiment on SNB-19 CNS was over 100 µM each time.
